Data set [1] in a line: log P by HPLC on reversed-phase column (C18), EEC Directive 79/831 Annex V.A8. The data set is classed as physicochemical. The protocol:
The log P values were determined according to EEC Directive 79/831 Annex V.A8 by HPLC (high-performance liquid chromatography) on a reversed-phase column (C18). Temperature 43° C. The calibration is effected with unbranched alkan-2-ones (having 3 to 16 carbon atoms), for which the log P values are known. Here, the terms acidic and neutral are defined analogously to the definitions below for the determination of M^+. The determination of the M^+ by LC-MS in the acidic range was carried out at pH 2.7 using the mobile phases 0.1% aqueous formic acid and acetonitrile (contains 0.1% formic acid); linear gradient from 10% acetonitrile to 95% acetonitrile, instrument: Agilent 1100 LC system, Agilent MSD system, HTS PAL. The determination of the M^+ by LC-MS in the neutral range was carried out at pH 7.8 using the mobile phases 0.001 molar aqueous ammonium bicarbonate solution and acetonitrile; linear gradient from 10% acetonitrile to 95% acetonitrile.

Another data set has as its system Tetranychus urticae. Kind of data set: Tetranychus urticae spray test, OP-resistant. The data set is classed as in vivo. The conditions noted are these: foliar, 144 h, bean leaf discs, after 6 days, read-out: efficacy. The protocol:
Tetranychus urticae—Spray Test, OP-Resistant
To produce a suitable active compound preparation, 1 part by weight of active compound is dissolved with the specified parts by weight of solvent and made up to the desired concentration with water containing an emulsifier concentration of 1000 ppm. To produce further test concentrations, the formulation is diluted with emulsifier-containing water.
Discs of bean leaves (Phaseolus vulgaris) infested with all stages of the greenhouse red spider mite (Tetranychus urticae) are sprayed with an active compound preparation of the desired concentration.
After 6 days, the efficacy in % is determined. 100% means that all the spider mites have been killed; 0% means that no spider mites have been killed.

The subject of a further data set is Meloidogyne incognita. Nature of the data set: Meloidogyne incognita test (sand, lettuce, gall formation). The class given is in vivo. The following applies: Meloidogyne incognita, 336 h, 20 ppm, after 14 days; read-out: nematicidal efficacy (formation of galls). The method in brief:
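Vessels held sand, diluted compound solution, M. incognita egg/larvae suspension and lettuce seeds, and the plants grew for 14 days. Efficacy in % came from root gall formation: 100% means no galls, 0% means galls equal to the untreated control.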

Data set [2] concerns Myzus persicae. Nature of the data set: Myzus persicae oral test. The class given is in vivo. The following applies: 120 h, 20 ppm, after 5 days, read-out: efficacy. The protocol:
Myzus persicae—Oral Test [table] To produce a suitable active compound preparation, 1 part by weight of active compound is dissolved with the stated parts by weight of solvent and made up to the desired concentration with water. 50 μl of the active compound preparation are transferred into microtitre plates and made up to a final volume of 200 μl with 150 μl of IPL41 insect medium (33%+15% sugar). Subsequently, the plates are sealed with parafilm, which a mixed population of green peach aphids (Myzus persicae) within a second microtitre plate is able to puncture and imbibe the solution through it. After 5 days, the efficacy in % is determined. 100% means that all the aphids have been killed; 0% means that no aphids have been killed.

Data set [3] concerns Myzus persicae. Nature of the data set: Myzus persicae spray test (Chinese cabbage leaf discs). The conditions noted are these: foliar, 144 h, 500 g/ha, after 6 days, read-out: efficacy. The data set is classed as in vivo. The protocol: Myzus persicae—Spray Test [table] To produce a suitable active compound preparation, 1 part by weight of active compound is dissolved with the specified parts by weight of solvent and made up to the desired concentration with water containing an emulsifier concentration of 1000 ppm. To produce further test concentrations, the formulation is diluted with emulsifier-containing water. Discs of Chinese cabbage leaves (Brassica pekinensis) infested by all stages of the green peach aphid (Myzus persicae) are sprayed with an active compound preparation of the desired concentration. After 6 days, the efficacy in % is determined. 100% means that all the aphids have been killed; 0% means that no aphids have been killed.

Where [4] appears, read: reversed-phase C18 HPLC column, pH 2.7, HCOOH (formic acid mobile phase), 43° C., read-out: log P (HCOOH).
The mark [5] stands for this setting: reversed-phase C18 HPLC column, acidic range, pH 2.7, 0.1% aqueous formic acid/acetonitrile, 43° C., read-out: log P (acidic).
[6] abbreviates: reversed-phase C18 HPLC column, neutral range, pH 7.8, aqueous ammonium bicarbonate/acetonitrile, 43° C., read-out: log P (neutral).

Like-named read-outs stand apart in the source and are kept apart here.

`O=C(O)c1nc(Br)n(CCC(F)(F)F)c1Br` [2,5-dibromo-1-(3,3,3-trifluoropropyl)-1H-imidazole-4-carboxylic acid] displayed a chromatographic logP in data set [1] (pH 2.7) of 1.49. Consider `COC(=O)c1cn(CCC(F)(F)F)cn1` [methyl 1-(3,3,3-trifluoropropyl)-1H-imidazole-4-carboxylate], for which, in data set [1] (setting [4]), the chromatographic logP was 0.87. Consider `Cc1nc(C(=O)NS(=O)(=O)c2ccccc2)cn1-c1ccccc1F` [I-255], for which the pest or weed control at 500 g/ha in the data set on Tetranychus urticae worked out at 70%. The pest or weed control at 20 ppm in the data set on Meloidogyne incognita amounted to 100%. For `COC(=O)c1cn(Cc2c(F)cccc2F)cn1` [methyl 1-(2,6-difluorobenzyl)-1H-imidazole-4-carboxylate], the chromatographic logP turned out to be 1.45 in data set [1] (setting [5]) and 1.55 in data set [1] (setting [6]). As to `COC(=O)c1nc(Br)n(CCC(F)(F)F)c1Br` [methyl 2,5-dibromo-1-(3,3,3-trifluoropropyl)-1H-imidazole-4-carboxylate], in data set [1] (setting [4]), the chromatographic logP was determined as 2.13. For the compound `Cc1nc(C(=O)NS(=O)(=O)c2ccccc2Cl)cn1-c1ccccc1Cl` [1-(2-chlorophenyl)-N-[(2-chlorophenyl)sulfonyl]-2-methyl-1H-imidazole-4-carboxamide], the chromatographic logP in data set [1] (setting [6]) was 0.85. On to `O=C(NS(=O)(=O)c1ccccc1Cl)c1nc(Br)n(CCC(F)(F)F)c1Br` [2,5-dibromo-N-[(2-chlorophenyl)sulfonyl]-1-(3,3,3-trifluoropropyl)-1H-imidazole-4-carboxamide], for which the chromatographic logP in data set [1] (setting [4]) is 2.99. For `CCOC(=O)c1cn(-c2ccccc2Cl)c(C)n1` [ethyl 1-(2-chlorophenyl)-2-methyl-1H-imidazole-4-carboxylate], in data set [1] (setting [6]), the chromatographic logP came out at 2.06. Consider `CCCn1cnc(C(=O)O)c1Cl` [5-chloro-1-propyl-1H-imidazole-4-carboxylic acid], for which, in data set [1] (pH 2.7), the chromatographic logP was 0.6. For the compound `COc1ccc(Cl)c(S(=O)(=O)NC(=O)c2cn(C)c(Cc3ccccc3)n2)c1` [I-373], the pest or weed control at 500 g/ha in the data set on Tetranychus urticae is 90%. Besides, the pest or weed control at 20 ppm with Meloidogyne incognita was found to be 70%. Regarding `Cn1cc(C(=O)NS(=O)(=O)c2ccccc2Cl)nc1Cc1ccc(Cl)cc1` [I-121], in the data set on Tetranychus urticae, the pest or weed control at 500 g/ha worked out at 90%. Further, the pest or weed control at 20 ppm in the data set with Meloidogyne incognita is 70%.

Consider `Cc1nc(C(=O)NS(=O)(=O)c2cc(Cl)ccc2Cl)cn1-c1cc(F)cc(Cl)c1` [I-330], for which the pest or weed control at 500 g/ha in the data set on Tetranychus urticae was 70%. Further, the pest or weed control at 20 ppm in the data set with Meloidogyne incognita came to 100%. On to `CC(C)S(=O)(=O)NC(=O)c1nc(Cl)n(CCC(F)(F)F)c1Cl` [I-492], for which the pest or weed control at 500 g/ha in the data set on Tetranychus urticae turned out to be 90%.

For `CC(C)Nc1cccc(F)c1S(=O)(=O)NC(=O)c1cn(-c2cc(Cl)cc(Cl)c2)cn1` [I-392], the pest or weed control at 20 ppm in the data set on Myzus persicae [2] and with Meloidogyne incognita was 100% each time. Also, the pest or weed control at 500 g/ha with Myzus persicae [3] stood at 90%. `CC(C)S(=O)(=O)NC(=O)c1cn(C)c(Cc2ccc(Cl)cc2)n1` [I-122]: the pest or weed control at 500 g/ha in the data set with Tetranychus urticae came out at 100%; in the data set with Myzus persicae [3] it was 90%. Moreover, the pest or weed control at 20 ppm in the data set on Meloidogyne incognita was 90%. For `O=C(NS(=O)(=O)Cc1ccccc1)c1ncn(CCC(F)(F)F)c1Cl` [I-028], in the data set on Tetranychus urticae, the pest or weed control at 500 g/ha worked out at 90%. Besides, the pest or weed control at 20 ppm with Meloidogyne incognita came to 100%. For `CCSc1cccc(Cl)c1S(=O)(=O)NC(=O)c1cn(-c2cc(Cl)cc(Cl)c2)cn1` [I-391], in that order: 70% and 100%.

`COc1ccc(Cl)c(S(=O)(=O)NC(=O)c2ncn(-c3ccc(Cl)cc3)c2C(C)C)c1` [I-483]: the pest or weed control at 500 g/ha in the data set on Tetranychus urticae was 80%. Moreover, the pest or weed control at 20 ppm in the data set on Meloidogyne incognita is 70%. `O=C(O)c1cn(Cc2c(F)cccc2F)cn1` [1-(2,6-difluorobenzyl)-1H-imidazole-4-carboxylic acid] came in with a chromatographic logP in data set [1] (pH 2.7) of 0.42. With `O=C(NS(=O)(=O)Cc1ccccc1Cl)c1ncn(CCC(F)(F)F)c1Cl` [I-085], the pest or weed control at 500 g/ha in the data set on Tetranychus urticae and in the data set with Myzus persicae [3] was 70% throughout. For the same compound, the pest or weed control at 20 ppm with Meloidogyne incognita is 90%. Take `Cc1nc(C(=O)NS(=O)(=O)c2ccccc2Cl)cn1Cc1ccc(Cl)cc1` [I-170]: the pest or weed control at 500 g/ha with Tetranychus urticae amounted to 90%. Further, the values for the pest or weed control at 20 ppm in the data set on Myzus persicae [2] and in the data set with Meloidogyne incognita were 90% and 100%, respectively. As to `Cc1cccc(CS(=O)(=O)NC(=O)c2ncn(CCC(F)(F)F)c2Cl)c1` [I-083], the pest or weed control at 500 g/ha in the data set with Tetranychus urticae is 90%. Besides, in the data set on Meloidogyne incognita, the pest or weed control at 20 ppm worked out at 90%. Consider `Cc1nc(C(=O)NS(=O)(=O)c2c(Cl)cccc2Cl)cn1-c1cc(Cl)cc(Cl)c1` [I-317], for which the pest or weed control at 20 ppm worked out at 90% in the data set on Myzus persicae [2] and 100% in the data set with Meloidogyne incognita. Also, in the data set with Myzus persicae [3], the pest or weed control at 500 g/ha came to 90%.

In the case of `CCCn1cnc(C(=O)OCC)c1N` [ethyl 5-amino-1-propyl-1H-imidazole-4-carboxylate], the chromatographic logP in data set [1] (setting [6]) is 0.9.

With `Cc1nc(C(=O)NS(=O)(=O)c2ccccc2Cl)cn1-c1ccccc1Cl` [I-269], the values for the pest or weed control at 20 ppm in the data set with Myzus persicae [2] and in the data set with Meloidogyne incognita were 70% and 90%, respectively. In the data set on Myzus persicae [3], the pest or weed control at 500 g/ha was determined as 70%. Consider `O=C(NS(=O)(=O)c1ccccc1)c1cn(-c2cccc(Cl)c2)cn1` [I-172], for which, in the data set with Tetranychus urticae, the pest or weed control at 500 g/ha was 100%. Also, in the data set with Meloidogyne incognita, the pest or weed control at 20 ppm came to 100%. Take `CC(CC(F)(F)F)n1cnc(C(=O)NS(=O)(=O)c2ccc(Cl)cc2)c1Cl` (stereo not drawn) [I-073]: the pest or weed control at 500 g/ha in the data set on Tetranychus urticae was determined as 90%. Besides, the pest or weed control at 20 ppm in the data set on Meloidogyne incognita stood at 100%. With `COc1ccc(Cl)c(S(=O)(=O)NC(=O)c2nc(C)n(-c3cc(Cl)cc(Cl)c3)c2F)c1` [N-[(2-chloro-5-methoxyphenyl)sulfonyl]-1-(3,5-dichlorophenyl)-5-fluoro-2-methyl-1H-imidazole-4-carboxamide], the chromatographic logP in data set [1] (setting [5]) came to 3.71. Take `Cn1nc(C(=O)NS(=O)(=O)c2cc(Cl)ccc2Cl)cc1-c1cccc(C(F)(F)F)c1` [N-[(2,5-dichlorophenyl)sulfonyl]-1-methyl-5-[3-(trifluoromethyl)phenyl]-1H-pyrazole-3-carboxamide]: the chromatographic logP in data set [1] (setting [5]) turned out to be 3.84. Turning to `O=C(NS(=O)(=O)c1ccccc1Cl)c1cn(-c2ccc(C(F)(F)F)cc2Cl)cn1` [I-197], the pest or weed control at 500 g/ha in the data set on Tetranychus urticae came out at 70%. Moreover, in the data set on Meloidogyne incognita, the pest or weed control at 20 ppm worked out at 100%. Turning to `CCCn1cnc(C(=O)NS(=O)(=O)c2ccc(OC)cc2)c1Cl` [5-chloro-N-[(4-methoxyphenyl)sulfonyl]-1-propyl-1H-imidazole-4-carboxamide], the chromatographic logP in data set [1] (setting [6]) amounted to 0.56.

Regarding `COc1ccc(Cl)c(S(=O)(=O)NC(=O)c2cn(Cc3c(F)cccc3F)cn2)c1` [N-[(2-chloro-5-methoxyphenyl)sulfonyl]-1-(2,6-difluorobenzyl)-1H-imidazole-4-carboxamide], in data set [1] (setting [5]), the chromatographic logP worked out at 2.18. Turning to `O=C(NS(=O)(=O)c1ccc(Cl)cc1)c1cn(Cc2cccc(Cl)c2)cn1` [I-160], in the data set with Tetranychus urticae, the pest or weed control at 500 g/ha came to 70%. Moreover, the pest or weed control at 20 ppm in the data set on Meloidogyne incognita was determined as 70%. As for `Cn1nc(C(=O)NS(C)(=O)=O)cc1-c1cc(Cl)ccn1` [I-127], the pest or weed control at 20 ppm with Myzus persicae [2] and in the data set on Meloidogyne incognita was 70% throughout. The pest or weed control at 500 g/ha with Myzus persicae [3] is 90%. As for `Cc1nc(C(=O)NS(=O)(=O)c2ccccc2)cn1Cc1ccccc1Cl` [I-171], the pest or weed control at 500 g/ha with Tetranychus urticae worked out at 90%; with Myzus persicae [3], 70%. Moreover, the pest or weed control at 20 ppm in the data set with Meloidogyne incognita is 100%. In the case of `O=C(NS(=O)(=O)c1ccccc1)c1cn(-c2cccc(C(F)(F)F)c2)cn1` [I-173], in the data set with Tetranychus urticae, the pest or weed control at 500 g/ha is 90%. Moreover, the pest or weed control at 20 ppm with Meloidogyne incognita was 100%.

The values are drawn from US10820591B2, “Substituted sulfonyl amides for controlling animal pests” (Bayer Aktiengesellschaft, priority 2016, dated 2020).
